Results: paper PMC9916883, “Betaine- and L-Carnitine-Based Ionic Liquids as Solubilising and Stabilising Agents for the Formulation of Antimicrobial Eye Drops Containing Diacerein” (International Journal of Molecular Sciences, 2023)
Values joined by “and” are separate entries in the source; they are usually repeats but may differ in a detail not shown here. Equal entries are not always repeated. Where two headings read alike, the source gives them in different places. Each block holds one molecule with its values, some of them ahead of it.

Key:
S. aureus W4 = assay: Killing assay; assay type: cell-based, Staphylococcus aureus; conditions: 3 h incubation in 5% TSB, ILs 0.27 M; for bactericidal effect: DIA 0.34 M; for CFU after treatment (limit of detection): DIA 0.34 M if loaded
Protocol: (§1) To this end, the bacterial strains were grown in TSB until the exponential phase, and approximately 5 × 10^4 CFU/mL-contained in 10 μL-was added to 5 μL of TSB, 35 μL of water, and 50 μL of one of the following solutions corresponding to the eye drop compositions tested in vivo: Bet6 or Carn6 with 0.27 M or 0.34 M DIA, plain DIA (0.34 M) solution, or plain Bet6/plain Carn6, both at 0.27 M. All solutions were prepared in CB. The samples were incubated at 37 °C with shaking for 3 h. A sample containing 0.6% DMSO (corresponding to the highest concentration of DMSO tested) was used as a control. Following incubation, the samples were diluted 10-fold in LB and plated on tryptone soy agar (TSA, Oxoid) to determine the number of CFU. Bactericidal activity was defined as a reduction of at least 3 Log10 in the number of viable bacteria as compared to the inoculum.

[1] = Critical aggregation concentration (CAC) by surface tension; assay type: physicochemical; conditions: in water; for critical aggregation concentration (CAC): via surface tension
Protocol: The CACs of the ILs were determined by measuring the surface tension (Tensiometer du Nouy, Force Tensiometer K6 from KRÜSS (GmbH)) of aqueous solutions with increasing IL concentrations. Milli-Q H2O was used as a reference, with γ equal to 71 ± 1.3 mN/m at 25 ± 2 °C (Dortmund databank reference, 71.5 ± 0.5 mN/m 24 ± 1.4 °C). Surface tension values were plotted vs. logarithms of the ILs’ concentrations, linear fits were applied to the data points, and CAC was determined as the intersection of the two linear fits relative to the initial surface tension depression and the further plateau.

[2] = IL aggregates' size and zeta potential in aqueous solutions (DLS, Zetasizer); assay type: physicochemical
Protocol: The size distribution and zeta potential values of the ILs’ aggregates in aqueous solutions were evaluated by using a Zetasizer Nano ZS (Malvern) at 25 °C. The samples were prepared by adding an excess of either DIA or Rhe (5 mg/mL) to the aqueous IL solutions, incubating them for 30 min at 25 °C, and finally removing the excess drugs by centrifugation. […] In contrast, for PB solutions, the solutions were prepared in water, and […] of 100 mM pH 7 phosphate buffer was added per 1 mL of aqueous solution, directly in the cuvette, before the dynamic light scattering (DLS) analysis started. The concentrations of the solubilised drug were determined by UV–Vis analysis.

[3] = tested on: BALB/3T3 clone A31 fibroblast cells; assay: Cytotoxicity screening (WST-1); assay type: cell-based, murine; conditions: Mus musculus, 4 h incubation, read-out: IC50 of cell viability
Protocol: BALB/3T3 clone A31 fibroblast cells were grown in Dulbecco’s Modified Eagle Medium (DMEM), supplemented with 2 mM L-glutamine, 1% penicillin/streptomycin, and 10% bovine calf serum. Cells were grown in a CO2 incubator (Heracell 150i series) at 37 °C and 5% CO2, with cells sub-cultured at 80–90% confluency. The cell monolayers were rinsed with PBS and treated with trypsin–EDTA to detach the cells before their resuspension in fresh media. A subconfluent monolayer of BALB/3T3 clone A31 fibroblast cells was trypsinised, centrifuged at 1000 rpm for 5 min, resuspended in growth medium, and counted.
A cytotoxicity screening was carried out for both ILs (range […]), as well as DIA and Rhe (0.5–200 mg/mL). Briefly, BALB/3T3 clone A31 fibroblast cells were seeded in each well of 96-well plates at a seeding density of 6 × 10^3 cells/well for 24 h, until 60–70% confluence was reached. After 24 h, the medium was then removed from each well and replaced with DMEM containing the samples.
After 4 h of incubation, the media were removed, replaced with fresh medium containing 10% WST-1 reagent solution, and maintained for 4 h at 37° C with 5% CO2. Afterwards, formazan dye absorbance was quantified at 450 nm with the reference wavelength at 655 nm by using a multilabel reader (BioTek 800/TS, Thermo Scientific).

[4] = tested on: type II porcine gastric mucin; assay: Mucoadhesion by microrheological method; assay type: physicochemical
Protocol: The measurements were performed using the Zetasizer Nano ZS instrument, as previously reported. The microrheological characterisation of the ILs was performed using type II porcine gastric mucin. Porcine gastric mucin was used because no ocular mucins were available, and as it has already been used for ocular models. Briefly, a 3 mg/mL suspension of type II porcine gastric mucin was prepared in Milli-Q water and filtered through 0.45 µm cellulose acetate filters. Next, 0.27 M and 0.20 M solutions of both ionic liquids in deionised water were prepared (corresponding to concentrations 15% higher and lower than the CAC, respectively). One millilitre of each sample to be tested had the following composition: 5 µL of tracer (latex polystyrene particles, diameter 500 nm, Beckman), 7.38 mg/mL of IL solution, 0.3 mg of mucin, and 8.1 mg/mL of 5% NaCl. As a reference, 1 mL of sample was prepared with the same composition but without the ILs. All measurements were carried out in triplicate.

P. aeruginosa ATCC 27853 = assay: Killing assay; assay type: cell-based, Pseudomonas aeruginosa; conditions: 3 h incubation in 5% TSB, ILs 0.27 M; for bactericidal effect: DIA 0.34 M; for CFU after treatment (limit of detection): DIA 0.34 M if loaded
Protocol: as §1

[5] = IL 180 μg/mL, DIA + (saturation), CB pH5
[6] = IL 180 μg/mL, Rhe + (saturation), PB pH7
[7] = IL 200 μg/mL, DIA + (saturation), CB pH5
[8] = IL 200 μg/mL, DIA + (saturation), H2O pH4
[9] = IL 200 μg/mL, Rhe + (saturation), H2O pH4
[10] = mucin with IL at 0.20 M (lower than CAC)
[11] = mucin with IL at 0.27 M (higher than CAC)

surface tension at the CAC (σ) [1]: 34.2 mN/m
critical aggregation concentration (CAC) [1]: 0.227 M and 0.227 ± 0.016 M
PDI ([2]; IL 90 μg/mL, no drug, H2O pH4): 0.01 ± 0.002
Ø (aggregates size) ([2]; IL 90 μg/mL, no drug, H2O pH4): 0.80 ± 0.03 nm
PDI ([2]; IL 105 μg/mL, no drug, H2O pH4): 0.01 ± 0.005
Ø (aggregates size) ([2]; IL 105 μg/mL, no drug, H2O pH4): 0.96 ±0.07 nm
PDI ([2]; IL 170 μg/mL, no drug, H2O pH4): 0.01 ± 0.005
Ø (aggregates size) ([2]; IL 170 μg/mL, no drug, H2O pH4): 1.96 ± 0.30 nm
PDI [2, 5]: 0.01 ± 0.005
Ø (aggregates size) [2, 5]: 1.73 ± 0.40 nm
ζ (zeta potential) [2, 5]: 2.82 ± 1.17 mV
PDI [2, 6]: 0.03 ± 0.005
Ø (aggregates size) [2, 6]: 1.71 ± 0.49 nm
ζ (zeta potential) [2, 6]: 5.77 ± 0.54 mV
PDI ([2]; IL 180 μg/mL, no drug, CB pH5): 0.01 ± 0.005
Ø (aggregates size) ([2]; IL 180 μg/mL, no drug, CB pH5): 1.76 ± 0.38 nm
ζ (zeta potential) ([2]; IL 180 μg/mL, no drug, CB pH5): 0.65 ± 0.53 mV
PDI ([2]; IL 180 μg/mL, no drug, PB pH7): 0.01 ± 0.005
Ø (aggregates size) ([2]; IL 180 μg/mL, no drug, PB pH7): 1.79 ± 0.41 nm
ζ (zeta potential) ([2]; IL 180 μg/mL, no drug, PB pH7): 8.93 ± 0.94 mV
PDI [2, 7]: 0.02 ± 0.005
Ø (aggregates size) [2, 7]: 2.01 ± 0.60 nm
ζ (zeta potential) [2, 7]: 0.16 ± 1.85 mV
PDI [2, 8]: 0.02 ± 0.005
Ø (aggregates size) [2, 8]: 1.69 ± 0.92 nm
ζ (zeta potential) [2, 8]: 9.53 ± 1.68 mV
PDI [2, 9]: 0.01 ±0.005
Ø (aggregates size) [2, 9]: 1.63 ± 0.21 nm
ζ (zeta potential) [2, 9]: 8.17 ± 0.94 mV
PDI ([2]; IL 200 μg/mL, no drug, CB pH5): 0.03 ± 0.005
Ø (aggregates size) ([2]; IL 200 μg/mL, no drug, CB pH5): 1.97 ± 0.44 nm
ζ (zeta potential) ([2]; IL 200 μg/mL, no drug, CB pH5): 2.62 ± 0.96 mV
PDI ([2]; IL 200 μg/mL, no drug, H2O pH4): 0.01 ± 0.005
Ø (aggregates size) ([2]; IL 200 μg/mL, no drug, H2O pH4): 1.81 ± 0.41 nm
ζ (zeta potential) ([2]; IL 200 μg/mL, no drug, H2O pH4): 13.70 ± 1.60 mV
Relative Viscosity [4, 10]: 0.79 ± 0.01 cP
Relative Viscosity [4, 11]: 1.32 ± 0.13 cP
SMILES: CCCCCCOC(=O)C[N+](C)(C)C.[Br-] [Bet6, (2-hexyloxy-2-oxoethyl)-trimethylammonium bromide]
bactericidal effect (S. aureus W4): strong bactericidal effect
CFU after treatment (limit of detection) (S. aureus W4): < 100 CFU/mL
IC50 [3]: 7500 µg/mL
IC50 ([3]; murine fibroblasts): 26.8 mM
bactericidal effect (P. aeruginosa ATCC 27853): strong bactericidal effect
CFU after treatment (limit of detection) (P. aeruginosa ATCC 27853): < 100 CFU/mL

surface tension at the CAC (σ) [1]: 36.1 mN/m
critical aggregation concentration (CAC) [1]: 0.226 M and 0.226 ± 0.020 M
PDI ([2]; IL 90 μg/mL, no drug, H2O pH4): 0.01 ± 0.002
Ø (aggregates size) ([2]; IL 90 μg/mL, no drug, H2O pH4): 1.17 ± 0.03 nm
PDI ([2]; IL 105 μg/mL, no drug, H2O pH4): 0.01 ± 0.002
Ø (aggregates size) ([2]; IL 105 μg/mL, no drug, H2O pH4): 1.53 ± 0.07 nm
PDI ([2]; IL 170 μg/mL, no drug, H2O pH4): 0.03 ± 0.016
Ø (aggregates size) ([2]; IL 170 μg/mL, no drug, H2O pH4): 2.12 ± 0.14 nm
PDI [2, 5]: 0.01 ± 0.005
Ø (aggregates size) [2, 5]: 2.24 ± 0.47 nm
ζ (zeta potential) [2, 5]: 1.85 ± 0.47 mV
PDI [2, 6]: 0.02 ± 0.005
Ø (aggregates size) [2, 6]: 2.03 ± 0.46 nm
ζ (zeta potential) [2, 6]: 9.38 ± 1.22 mV
PDI ([2]; IL 180 μg/mL, no drug, CB pH5): 0.01 ± 0.005
Ø (aggregates size) ([2]; IL 180 μg/mL, no drug, CB pH5): 2.04 ± 0.43 nm
ζ (zeta potential) ([2]; IL 180 μg/mL, no drug, CB pH5): 2.56 ± 0.34 mV
PDI ([2]; IL 180 μg/mL, no drug, PB pH7): 0.004± 0.005
Ø (aggregates size) ([2]; IL 180 μg/mL, no drug, PB pH7): 1.91 ± 0.27 nm
ζ (zeta potential) ([2]; IL 180 μg/mL, no drug, PB pH7): 10.70 ± 1.16 mV
PDI [2, 7]: 0.01 ± 0.005
Ø (aggregates size) [2, 7]: 2.40 ± 0.56 nm
ζ (zeta potential) [2, 7]: 4.17 ± 0.20 mV
PDI [2, 8]: 0.02 ± 0.005
Ø (aggregates size) [2, 8]: 2.14 ± 0.55 nm
ζ (zeta potential) [2, 8]: 12.20 ± 1.96 mV
PDI [2, 9]: 0.02 ± 0.005
Ø (aggregates size) [2, 9]: 2.11 ± 0.50 nm
ζ (zeta potential) [2, 9]: 12.80 ± 1.27 mV
PDI ([2]; IL 200 μg/mL, no drug, CB pH5): 0.07 ± 0.005
Ø (aggregates size) ([2]; IL 200 μg/mL, no drug, CB pH5): 2.34 ± 0.66 nm
ζ (zeta potential) ([2]; IL 200 μg/mL, no drug, CB pH5): 2.08 ± 0.13 mV
PDI ([2]; IL 200 μg/mL, no drug, H2O pH4): 0.01 ± 0.005
Ø (aggregates size) ([2]; IL 200 μg/mL, no drug, H2O pH4): 1.87 ± 0.42 nm
ζ (zeta potential) ([2]; IL 200 μg/mL, no drug, H2O pH4): 14.30 ± 2.33 mV
Relative Viscosity [4, 10]: 0.75 ± 0.01 cP
Relative Viscosity [4, 11]: 1.31 ± 0.26 cP
SMILES: CCCCCCOC(=O)C[C@@H](O)C[N+](C)(C)C [Carn6, (R)-(4-hexyloxy-2-hydroxy-4-oxobutyl)-trimethylammonium bromide]
bactericidal effect (S. aureus W4): strong bactericidal effect
CFU after treatment (limit of detection) (S. aureus W4): < 100 CFU/mL
IC50 [3]: 9000 µg/mL
IC50 ([3]; murine fibroblasts): 27.8 mM
bactericidal effect (P. aeruginosa ATCC 27853): strong bactericidal effect
CFU after treatment (limit of detection) (P. aeruginosa ATCC 27853): < 100 CFU/mL
